Patent US20170112792A1, “ENHANCED ATRA-RELATED COMPOUNDS DERIVED FROM STRUCTURE-ACTIVITY RELATIONSHIPS AND MODELING FOR INHIBITING PIN1” (Beth Israel Deaconess Medical Center, Inc., priority 2014, published 2017)

Assays:
[1] = system: Pin1 and PML-RARα in NB4 cells; assay: immunoblot of Pin1 and PML-RARα in APL NB4 cells; format: cell-based, human
Protocol: (§2) For immunoprecipitation and immunoblotting in the examples below, cells were polyethylenimine (PEI)- or lipofemamine-transfected with 8 μg of various plasmids, incubated in 10 cm dishes for 24 hours, and subsequently treatment with drugs as needed. […] After centrifugation at 13,000 g for 10 minutes, one tenth of the supernatant was stored as input, and the remainder was incubated 12 hours with M2 Flag agarose (Sigma). After brief centrifugation, immunoprecipitates were collected, extensively washed with the aforementioned lysis buffer twice, suspended in 2×SDS sample buffer (100 mM Tris-HCl, pH 6.8, 4% SDS, 5% β-mercaptoethanol, 20% glycerol, and 0.1% bromphenol blue), boiled for 10 minutes, and subjected to immunoblotting analysis. […] After electrophoresis, gel was transferred to nitrocellulose membranes using a semidry transfer cell. The transblotted membrane was washed twice with Tris-buffered saline containing 0.1% Tween 20 (TBST). After blocking with TBST containing 5% bovine serum albumin (BSA) for 1 hour, the membrane was incubated with the appropriate primary antibody (diluted 1:1000) in 2% BSA-containing TBST at 4° C. overnight. After incubation with the primary antibody, the membrane was washed three times with TBST for a total of 30 minutes followed by incubation with horseradish peroxidase (HRP)-conjugated goat anti-rabbit or anti-mouse IgG (diluted 1:2500) for 1 hour at room temperature. After three extensive washes with TBST for a total of 30 minutes, the immunoblots were visualized by enhanced chemiluminescence.

GST-FKBP12 = GST-FKBP12 (Homo sapiens, UniProt P62942); assay: chymotrypsin coupled PPlase activity assay, FKBP12; format: biochemical
[2] = system: NIH3T3 cells stably expressing Flag-tagged Pin1; assay: centrosome amplification induced by Pin1 overexpression; settings: 72 hours
Protocol: Tissue samples were washed with PBS and fixed with 4% paraformaldehyde at room temperature for 20 minutes, followed by permeabilization and blocking with PBS containing 0.1% Triton X-100 and 5% FBS for 1 hour. After another wash with PBS, immunostaining was performed by incubating the cells with mouse anti-Pin1 (1:1000), or rabbit anti-PML (Santa Cruz; 1:100) primary antibodies at 4° overnight. Primary antibodies were diluted in PBS containing 0.1% Triton X-100, 0.2% BSA, 0.5 mM PMSF, and 1 mM dithiothreitol. […] Samples were nuclear counterstained with 4,6-diamidino-2-phenylindole (DAPI), mounted and visualized with a LSM510 confocal imaging system. For centrosome duplication assays, NIH3T3 cells were used. Cells were synchronized in G1/S phase by adding 10 μg/ml aphidicolin for 24 hours, then fixed with 4% paraformaldehyde at room temperature for 20 minutes. Cells were then stained for centrosomes with anti-γ-tubulin antibodies (Sigma; 1:100) and analyzed by confocal microscopy.

Pin1 [3] = biological target: T1, Pin1 (Homo sapiens, UniProt Q13526); assay: photoaffinity labeling of Pin1 with [3H]ATRA; format: binding; settings: read-out: equilibrium dissociation constant Kd
T1 construct: His6 (N); made in house; host or cells: E. coli (inferred: pET28, IPTG induction, LB culture; BL21(DE3) is printed only for the WW domain)
T1 sequence (Q13526 whole entry, the tested form may be a part): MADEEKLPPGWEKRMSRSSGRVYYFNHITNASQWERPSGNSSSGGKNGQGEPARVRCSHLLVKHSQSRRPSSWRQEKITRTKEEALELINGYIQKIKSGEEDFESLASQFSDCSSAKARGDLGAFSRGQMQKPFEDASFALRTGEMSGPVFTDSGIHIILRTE
Protocol: […] of Pin1 was incubated in microcentrifuge tubes with a series of concentrations of all-trans-[11,12-^3H]-retinoic acid (PerkinElmer, 43.7 Ci/mmol) in 20 μl of the FP assay buffer at 23° C. with agitation for 2 hours in the dark. The caps of the microcentrifuge tubes were opened, and the samples were placed on ice and exposed to an Electrophoresis System 365/254 nm UV hand lamp (Fisher Scientific) suspended 6 cm above the surface of the liquid for 15 minutes. The samples were boiled in SDS sample buffer and subsequently separated on standard SDS/PAGE gels. The gels were dried and then used for fluorography at −80° C. for 5 days and quantified using Quantity One from BioRad.

GST-Pin1 [4] = biological target: T2, GST-Pin1 (Homo sapiens, UniProt Q13526); assay: chymotrypsin coupled PPlase activity assay, Pin1; format: biochemical
T2 sequence (Q13526 whole entry): as the sequence (Q13526 whole entry, the tested form may be a part) above
Text: where Km is the Michaelis constant for the used substrate, S is the initial concentration of the substrate in the assay, and the IC50 value is of the inhibitor.

GST-Pin1 [5] = biological target: T2, GST-Pin1; assay: fluorescence polarization (FP) pTide competition assay / FP-HTS
Text: This sequence was optimized for solubility and binding to GST-PPI. […] Measurements of fluorescence polarization and fluorescence absorbance were made in black 384-well plates (Corning) using a Synergy II plate reader. Compounds were transferred to plates using a custom-built Seiko pin-transfer robot at the Institute for Chemistry and Cell Biology at Harvard Medical School. The assay can tolerate up to 10%/o DMSO.
Molecules that compete with pTide for binding to the active site, e.g., Pin1 substrates, were detected under equilibrium conditions. A Z score was used to identify and rank those molecules that were most competitive with pTide (e.g., that have higher binding affinity). A Z score is defined as Z=(x−μ)/σ, where x is a raw score, μ is the mean of the population, and σ is the standard deviation of the population. Molecules with the most negative Z scores represent those with the highest Pin1 binding affinity. The Z′ value for this assay was around 0.70 and was consistent for day-to-day performance, with a coefficient of variation in the range of 4-5%.
A lower value of Ki is indicative of higher association and, accordingly, higher affinity of the substrate to the protein.

[6] = system: BMDCs co-cultured with naive CD4+ cells; assay: IL-33-induced TH2 polarization, BMDC / naive CD4+ T cell coculture; settings: IL-33 50 ng/ml, 5 μM ATRA
Protocol: BMDCs were isolated from WT or Pin1 KO mice in a 1:5 ratio for 5 days with no antigen being added. […] Supernatants were analyzed for cytokines on day 5.
To examine whether Pin1 is required for IL-33-induced TH2 polarization, we evaluated the effects of Pin1 KO derived dendritic cells in IL-33-induced TH2 polarization by co-culturing bone marrow dendritic cells (BMDCs) derived from WT or Pin1 KO mice with WT naïve CD4^+ cells. The cells were treated with IL-33 and resultant IL-5 and IL-13 were measured.

MDA-MB-231 cells = assay: MDA-MB-231 xenograft in nude mice
Text: In pilot experiments, MDA-MB-231 cells were subcutaneously injected into female nude mice in the flank.

[7] = system: APL cells isolated from hCG-PML-RARα transgenic mice; settings: same regimens
IL-33-induced asthma = IL-33-induced asthma in mice
[8] = system: Pin1 and its substrate oncogenes and tumor suppressors; assay: immunoblot of Pin1 and its substrate proteins in breast cells
Protocol: as §2

[9] = system: Pin1 WT and Pin1 KO mouse embryonic fibroblasts (MEFs); assay: cell growth of Pin1 WT and KO MEFs
Protocol: For cell growth assays described below, cells were seeded in a density of 3000 cells per well in 96-well flat-bottomed plates, and incubated for 24 h in 10% FBS-supplemented DMEM culture medium. […] Control cells received DMSO at a concentration equal to that in drug-treated cells. After 72 hours, the number of cells was counted after trypsin digestion, or medium containing 0.5 mg/ml 3-(4,5-dimethylthiazol-2-yl)-2,5-diphenyl-2H-tetrazolium bromide was added to each well for 2 hours of incubation at 37° C., followed by removal of the media before the addition of 200 μl DMSO. Absorbance was determined at 570 nm.

RAR = assay: transactivation of RAR downstream target genes
Pin1 [10] = assay: Pin1 protein level, mRNA and stability in MEFs (immunoblot, RT-PCR, CHX chase); format: cell-based, mouse
Protocol: RNA from cells was extracted with the Total RNA isolation mini kit (Agilent). cDNA was prepared with transcriptor first strand cDNA synthesis kit (Roche) and PCR was carried out with iQ SYBR Green Supermix (Bio-Rad) or SYBR Green PCR Master Mix (Applied Blosystems). 1 μl cDNA was used for each RT-PCR reaction. Samples were run on the QIAGEN Rotor-Gene Q real-time cycler or the Applied Biosystems StepOnePlus Real Time PCR instrument. GAPDH was used as an internal control. Analysis was performed with the ^ΔΔCt method. The following primers were used: […]

SKBR3 cells = assay: foci formation assay with Pin1 overexpression
cyclin D1 promoter = cyclin D1 promoter luciferase activity with Pin1 overexpression; settings: 72 hours
MDA-MB-468 cells = assay: MDA-MB-468 xenograft in nude mice
Protocol: Tumor sizes were measured weekly and mice were sacrificed after 7 weeks to collect tumor tissues (37D). […] Pin1 and cyclin D1 in xenograft tumors were assayed by IB (37F).

human APL NB4 cells = assay: NB4 cell growth; format: cell-based
Protocol: (§1) Absorbance was determined at 570 nm.

MRL/lpr lupus prone mice = assay: MRL/lpr lupus prone mice
GST-cyclophilin = assay: chymotrypsin coupled PPlase activity assay, cyclophilin
DC2.4 cells = assay: IL-33-induced gene expression in DC2.4 cells expressing IRAKM or mutants; format: cell-based, mouse
Text: In the left panels, western blots show protein levels of IRAKM, Pin1 and tubulin. The right panels show the relative gene expression of IL-6, CXCL2, CSF3 and CCL5 in the different samples normalized to actin.

[11] = humans; cited from earlier work
[12] = system: human normal and breast cancer cell lines; assay: cell growth of human normal and breast cancer cell lines; format: cell-based; settings: 72 hours
Protocol: as §1
To test this possibility, we chose breast cancer as a model due to the substantial oncogenic role of Pin1 in vitro and in vivo.

Pin1 and PML-RARα = Pin1 and PML-RARα immunostaining in bone marrow of APL patients
Protocol: Tissue samples were washed with PBS and fixed with 4% paraformaldehyde at room temperature for 20 minutes, followed by permeabilization and blocking with PBS containing 0.1% Triton X-100 and 5% FBS for 1 hour. After another wash with PBS, immunostaining was performed by incubating the cells with mouse anti-Pin1 (1:1000), or rabbit anti-PML (Santa Cruz; 1:100) primary antibodies at 4° overnight. Primary antibodies were diluted in PBS containing 0.1% Triton X-100, 0.2% BSA, 0.5 mM PMSF, and 1 mM dithiothreitol. […] Samples were nuclear counterstained with 4,6-diamidino-2-phenylindole (DAPI), mounted and visualized with a LSM510 confocal imaging system.
Bone marrow aspirates were obtained with informed consent from the iliac crest of patients in whom the diagnosis of acute promyelocytic leukemia was suspected based on the morphological evaluation of peripheral blood smear. […] Samples tested positive for the PML/RARα rearrangement by RT-PCR.

[13] = 5 or 10 mg 21 day pellets implanted 1 week after inoculation
[14] = cells stably expressing Flag-Pin1, ATRA implants
[15] = three sensitive cancer cell lines, 72 hours

Sequence of GST-FKBP12 (P62942 whole entry): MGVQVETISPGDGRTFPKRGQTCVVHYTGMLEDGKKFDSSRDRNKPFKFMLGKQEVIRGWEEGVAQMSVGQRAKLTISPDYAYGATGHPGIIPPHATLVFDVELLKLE

inhibition of FKBP12 (GST-FKBP12): did not inhibit
Kd (Pin1 [3]): 0.8 µM
inhibition of PPlase activity of Pin1 (GST-Pin1 [4]): fully inhibited
Ki (GST-Pin1 [4]; Cheng-Prusoff equation, read-out: Ki from PPlase assay): 0.82 µM
competition with TAMRA-conjugated pTide for Pin1 (GST-Pin1 [5]; TAMRA-labeled probe): competitive
Pin1-induced activation of the cyclin D1 promoter (cyclin D1 promoter): dose-dependently and fully inhibited
inhibition of cyclophilin (GST-cyclophilin): did not inhibit
Compound: CC1=C(/C=C/C(C)=C/C=C/C(C)=C/C(=O)O)C(C)(C)CCC1 [ATRA, (2E,4E,6E,8E)-3,7-dimethyl-9-(2,6,6-trimethylcyclohexen-1-yl)nona-2,4,6,8-tetraenoic acid]
Pin1 and PML-RARα expression ([1]; 10 μM, 96 hours, micrographs): reduced Pin1 and PML-RARα expression
PML-RARα level in APL cells ([1]; 72 hours): dose-dependently reduced PML-RARα
degradation of PML-RARα and Pin1 in RARα, β, γ triple KO MEFs (Flag-PML-RARα and Pin1): induced degradation of PML-RARα and Pin1 similar to that for WT controls
Pin1-induced centrosome amplification [2]: dose-dependently and fully inhibited
Pin1 binding in FP assay (GST-Pin1 [5]): dramatically outperformed the other species
TH2 polarization (IL-5 and IL-13 secretion) [6]: drastically attenuated
antitumor activity, intraperitoneal (MDA-MB-231 cells; 12.5 mg/kg i.p. 3 times a week for 8 weeks): modest antitumor activity
Pin1 and cyclin D1 in xenograft tumors (MDA-MB-231 cells; 5 or 10 mg 21 day pellets): reduced both Pin1 and its substrate cyclin D1
tumor growth, ATRA-releasing pellets (MDA-MB-231 cells; [13]): potently and dose-dependently inhibited tumor growth
endogenous and exogenous Pin1 and cyclin D1 in tumors (MDA-MB-231 cells; [14]): dose-dependently reduced both endogenous and exogenous Pin1, and cyclin D1
tumor growth of Pin1-overexpressing MDA-MB-231 cells (MDA-MB-231 cells; [14]): effectively inhibited by ATRA in a dose-dependent manner
PML-RARα in the bone marrow [7]: effectively reduced PML-RARα
Pin1 levels in the bone marrow [7]: reduced Pin1 levels
spleen weights [7]: nearly at basal levels
IL-33 induced asthma phenotypes (inflammation, airway remodeling, BALF cells) (IL-33-induced asthma; 10 mg 21 day ATRA-releasing pellets, 14 days before intranasal IL-33): dramatically attenuated
BALF IL-12 and TNF-α levels (IL-33-induced asthma; same regimen): no significant effect
BALF IL-13 and -5 levels (IL-33-induced asthma; same regimen): significantly reduced
IRAKM accumulation and nuclear localization in BALF cells (IL-33-induced asthma; same regimen): almost completely abrogated
IRAKM levels in the lung (IL-33-induced asthma; same regimen): reduction of IRAKM levels back to control treated mice
Pin1 protein levels in the lung (IL-33-induced asthma; same regimen): effectively decreased the Pin1 protein levels only after IL-33 was administrated
effects on normal breast cells ([8]; normal cells): no appreciable effects
protein levels of Pin1 and its substrate oncogenes [8, 15]: dose-dependent protein reduction
protein levels of Pin1 substrate tumor suppressors [8, 15]: protein induction
growth inhibition of Pin1 KO MEFs ([9]; Pin1 KO MEFs): much more resistant
growth inhibition of Pin1 WT MEFs ([9]; Pin1 WT MEFs): relatively high concentrations of ATRA were required
transactivation of RAR downstream target genes (RAR): effectively and significantly induces transactivation of RAR downstreams
potency in reducing Pin1 levels and stability, comparison (Pin1 [10]): more potent in reducing Pin1 levels and stability than 13cRA
Pin1 protein level (Pin1 [10]; immunoblot, not W34/K63A mutant): dose-dependently down-regulated Pin1
Pin1 mRNA levels (Pin1 [10]; quantitative RT-PCR): no obvious effects
Pin1-enhanced foci formation (SKBR3 cells): dose-dependently and fully inhibited
Pin1 and cyclin D1 in xenograft tumors (MDA-MB-468 cells; 5 or 10 mg 21 day pellets): reduced both Pin1 and its substrate cyclin D1
tumor growth, ATRA-releasing pellets (MDA-MB-468 cells; [13]): potently and dose-dependently inhibited tumor growth
NB4 cell proliferation (human APL NB4 cells): suppressed
visual lupus-related phenotypes (fur loss, skin inflammation, lymphoid hyperplasia) (MRL/lpr lupus prone mice; 5 mg ATRA for 8 weeks from 8 weeks of age): drastically suppressed
size of spleen and lymph node (MRL/lpr lupus prone mice; 14 week-old mouse): normal size
glomerular deposition of IgG, C3, and CD68 (MRL/lpr lupus prone mice; mouse, in vivo): potently inhibited
hyperkeratinosis (MRL/lpr lupus prone mice; mouse, in vivo): potently inhibited
reduction of target gene expression in IRAKM P111A cells (DC2.4 cells): completely abolished
Pin1 expression (DC2.4 cells; 5 or 10 μM ATRA for three days before IL-33): reduced Pin1 expression
expression of IL-6, CXCL2, CSF3 and CCL5 in IRAKM stably expressing cells (DC2.4 cells; even at low ATRA dose (5 μM)): reduced Pin1 expression (FIG. 63D) and the expression of these target genes
reduction of target gene expression in IRAKM S110E cells (DC2.4 cells; high ATRA dose (10 μM)): some degree of reduction in gene expression still persisted
half-life [11]: ~45 min
sensitivity of malignant breast cells [12]: differential susceptibility
sensitivity of non-transformed MCF10A and HMLE cells [12]: highly resistant
PML-RARα level remaining in APL patients' bone marrow (Pin1 and PML-RARα; 3 days of ATRA treatment): ~40%
Pin1 level remaining in APL patients' bone marrow (Pin1 and PML-RARα; 3 days of ATRA treatment): ~40%
PML-RARα level remaining in APL patients' bone marrow (Pin1 and PML-RARα; 10 days of ATRA treatment): < 10%
Pin1 level remaining in APL patients' bone marrow (Pin1 and PML-RARα; 10 days of ATRA treatment): < 10%
